Test results as given in the supplement of paper PMC10307832.

How the values were obtained:
Experiment in all cases: relative viability (nuclei count vs DMSO), 5 days (fraction); higher = more cells survive
GW-2580 + Pictilisib = compound: COC1=CC=C(C=C1)COC2=C(C=C(C=C2)CC3=CN=C(N=C3N)N)OC [GW-2580] + CS(=O)(=O)N1CCN(Cc2cc3nc(-c4cccc5[nH]ncc45)nc(N4CCOCC4)c3s2)CC1 [Pictilisib] (partner 1 µM)
Procedure, shortened: (§1)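 Lung cancer cell lines in 1536-well plates were dosed by pin tool the day after seeding, either with one drug alone or with a fixed anchor-drug dose plus five library-drug doses (not always all listed) in √10 steps. After 5 days, cells were fixed and their nuclei stained in one step (final 0.05% Triton X-100, 1% formaldehyde, 1 ug/ml Hoechst), then counted on 4× images. Relative viability is the nuclei count in treated wells divided by that in vehicle wells. Values are medians of duplicate plates.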

GW-2580 + Olaparib = compound: COC1=CC=C(C=C1)COC2=C(C=C(C=C2)CC3=CN=C(N=C3N)N)OC [GW-2580] + O=C(c1cc(Cc2n[nH]c(=O)c3ccccc23)ccc1F)N1CCN(C(=O)C2CC2)CC1 [Olaparib] (partner 8 µM)
Procedure, shortened: as §1

Fedratinib + AZD7762 = compound: Cc1cnc(Nc2ccc(OCCN3CCCC3)cc2)nc1Nc1cccc(S(=O)(=O)NC(C)(C)C)c1 [Fedratinib] + NC(=O)Nc1cc(-c2cccc(F)c2)sc1C(=O)N[C@H]1CCCNC1 [AZD7762] (partner 0.2 µM)
Procedure, shortened: as §1

GW-2580 + OSI-027 = compound: COC1=CC=C(C=C1)COC2=C(C=C(C=C2)CC3=CN=C(N=C3N)N)OC [GW-2580] + COc1cccc2cc(-c3nc([C@H]4CC[C@H](C(=O)O)CC4)n4ncnc(N)c34)[nH]c12 [OSI-027] (partner 0.5 µM)
Procedure, shortened: as §1

GW-2580 + Bortezomib = compound: COC1=CC=C(C=C1)COC2=C(C=C(C=C2)CC3=CN=C(N=C3N)N)OC [GW-2580] + CC(C)C[C@H](NC(=O)[C@H](Cc1ccccc1)NC(=O)c1cnccn1)B(O)O [Bortezomib] (partner 0.002 µM)
Procedure, shortened: as §1

Cell Line	relative viability (GW-2580 + Pictilisib; first compound 0.08 µM)	relative viability (GW-2580 + Pictilisib; first compound 0.8 µM)	relative viability (GW-2580 + Pictilisib; first compound 2.53 µM)	relative viability (GW-2580 + Pictilisib; first compound 8 µM)	relative viability (GW-2580 + Olaparib; first compound 0.08 µM)	relative viability (GW-2580 + Olaparib; first compound 0.8 µM)	relative viability (GW-2580 + Olaparib; first compound 2.53 µM)	relative viability (GW-2580 + Olaparib; first compound 8 µM)	relative viability (Fedratinib + AZD7762; first compound 0.1 µM)	relative viability (Fedratinib + AZD7762; first compound 0.3162 µM)	relative viability (Fedratinib + AZD7762; first compound 1 µM)	relative viability (GW-2580 + OSI-027; first compound 0.08 µM)	relative viability (GW-2580 + OSI-027; first compound 0.8 µM)	relative viability (GW-2580 + OSI-027; first compound 2.53 µM)	relative viability (GW-2580 + OSI-027; first compound 8 µM)	relative viability (GW-2580 + Bortezomib; first compound 0.08 µM)	relative viability (GW-2580 + Bortezomib; first compound 0.8 µM)	relative viability (GW-2580 + Bortezomib; first compound 2.53 µM)	relative viability (GW-2580 + Bortezomib; first compound 8 µM)
HCC-15	0.79	0.824	0.653	0.677	0.841	0.628	0.66	0.75	1.19	1.28	1.2	0.743	0.787	0.596	0.656	1.06	1.16	1.05	1.02
HCC-44	0.688	0.717	0.582	0.619	1.04	1.05	1.04	1.03	0.995	1	1	0.51	0.523	0.5	0.524	0.95	0.997	0.822	0.914
HCC-78	0.242	0.245	0.171	0.227	0.818	0.919	0.757	0.861	0.582	0.526	0.497	0.362	0.434	0.337	0.337	0.457	0.422	0.353	0.465
HCC-366	0.148	0.199	0.141	0.137	0.379	0.526	0.387	0.417	0.326	0.234	0.188	0.944	1.13	0.894	0.818	1.22	1.08	1.24	1.12
HCC-827	1.01	1.01	0.949	0.963	0.692	0.642	0.632	0.617	0.161	0.205	0.219	0.848	0.906	0.278	0.687	0.964	1.12	1.01	0.952
HOP-62	0.909	0.72	0.63	0.736	0.512	0.809	0.179	0.402	0.734	0.566	0.555	0.905	0.801	0.847	0.985	1.13	0.861	0.406	0.727
LC-2-ad	0.577	0.502	0.447	0.413	0.723	0.727	0.702	0.722	0.829	0.863	0.818	0.88	0.867	0.87	0.78	1.05	1.08	0.922	1.08
LCLC-97TM1	0.197	–	0.159	0.181	0.379	0.579	0.313	0.428	0.342	0.154	0.21	0.556	0.614	0.624	0.426	0.404	1.02	0.288	0.982
